Like-named read-outs stand apart in the source and are kept apart here.
Assays:
murine AChE (mAChE) [1] = target: T1, murine AChE (mAChE) (Mus musculus, UniProt P21836); experiment: biochemical
T1 sequence (P21836 32-614): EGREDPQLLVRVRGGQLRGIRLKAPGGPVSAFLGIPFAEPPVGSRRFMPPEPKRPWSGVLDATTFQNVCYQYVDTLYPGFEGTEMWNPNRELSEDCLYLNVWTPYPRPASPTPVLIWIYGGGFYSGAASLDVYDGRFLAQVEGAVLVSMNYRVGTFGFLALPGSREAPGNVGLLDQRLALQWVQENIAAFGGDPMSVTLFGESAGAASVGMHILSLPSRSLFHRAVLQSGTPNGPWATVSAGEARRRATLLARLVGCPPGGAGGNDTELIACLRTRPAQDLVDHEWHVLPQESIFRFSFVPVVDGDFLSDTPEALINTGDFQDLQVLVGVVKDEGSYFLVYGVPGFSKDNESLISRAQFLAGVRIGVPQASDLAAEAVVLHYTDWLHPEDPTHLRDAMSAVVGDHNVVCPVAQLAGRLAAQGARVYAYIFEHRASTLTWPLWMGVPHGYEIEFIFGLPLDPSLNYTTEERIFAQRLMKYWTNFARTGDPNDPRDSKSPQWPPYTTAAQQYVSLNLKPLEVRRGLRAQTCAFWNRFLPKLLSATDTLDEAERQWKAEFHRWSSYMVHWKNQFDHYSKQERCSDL

murine AChE (mAChE) [2] = target: T1, murine AChE (mAChE); experiment: biochemical; assay type: binding
murine AChE (mAChE) [3] = target: T1, murine AChE (mAChE); experiment: Equilibrium binding of TFT to mAChE
human recombinant AChE = details: cited from earlier work
[4] = IC50 values (Mean ± SEM), Reduction of AChE activity
[5] = IC50 values (Mean ± SEM), Reduction of TFT Fluorescence
[6] = read-out: IC50 values (Mean ± SEM), Reduction of AChE activity, pH 7.4
[7] = read-out: IC50 values (Mean ± SEM), Reduction of TFT Fluorescence, pH 7.4

Compound | IC50 (murine AChE (mAChE) [1]; [4]) [nM] | Ratio = IC50 TFT assay/IC50 Ellman assay (murine AChE (mAChE) [2]) | IC50 (murine AChE (mAChE) [2]; [5]) [nM] | also measured
CNC(=O)O/N=C/C(C)(C)SC [Aldicarb, aldicarb] | 645 | 0.9 | 565 | 
C=CC[N+](C)(C)c1ccc(CCC(=O)CCc2ccc([N+](C)(C)CC=C)cc2)cc1.[Br-].[Br-] [BW284C51, BW284c51] |  | 1.9 |  | IC50 (murine AChE (mAChE) [1]; [6]): 4.4 nM; IC50 (murine AChE (mAChE) [2]; [7]): 8.3 nM
CNC(=O)Oc1cccc2c1OC(C)(C)O2 [Bendiocarb, bendiocarb] | 46 | 0.4 | 20 | 
CNC(=O)Oc1cccc(C(C)(C)C)c1 [Compound 1, 3-tert-butylphenyl methylcarbamate] | 62 | 0.4 | 25 | 
CCC(C)CSc1ccccc1OC(=O)NC (stereo not shown) [Compound 2, 2-(2-methylbutylthio)phenyl methylcarbamate] | 10300 | 0.9 | 8900 | 
CC[N+](C)(C)c1cccc(O)c1 [Edrophonium, edrophonium] | 3430 | 0.33 | 1120 | fold lower IC50 in TFT assay than in Ellman assay (murine AChE (mAChE) [2]): 3 fold; maximum percentage reduction of total TFT fluorescence (murine AChE (mAChE) [2]): around 30%
CC[n+]1c(-c2ccccc2)c2cc(N)ccc2c2ccc(N)cc21 [Ethidium Bromide, ethidium bromide] | 4000 | 4.1 | 16000 | TFT/Ellman IC50 ratio (murine AChE (mAChE) [2]): around four times higher
Cc1nc(N(C)C)nc(OC(=O)N(C)C)c1C [Pirimicarb, pirimicarb] | 738 | 0.6 | 454 | 
CC[N+](C)(CC)CCC[n+]1c(-c2ccccc2)c2cc(N)ccc2c2ccc(N)cc21 [Propidium Iodide, propidium iodide] | 662 | 1.0 | 670 | IC50 (murine AChE (mAChE) [1]; IC50, Ellman assay): 700 nM; TFT fluorescence remaining after adding propidium iodide (murine AChE (mAChE) [2]): 0%; IC50 (murine AChE (mAChE) [2]; IC50, TFT assay): 700 nM
CNC(=O)Oc1ccccc1OC(C)C [Propoxur, propoxur] | 466 | 0.13 | 60 | fold lower IC50 in TFT assay than in Ellman assay (murine AChE (mAChE) [2]): 7.7 fold
Cc1ccc2c(c1)sc(-c1ccc(N(C)C)cc1)[n+]2C [TFT, thioflavin-T] |  |  |  | Kd (murine AChE (mAChE) [3]): 1400 ± 200 nM; increase of TFT fluorescence in the presence of mAChE over free solution (murine AChE (mAChE) [3]; 10 uM TFT): 1.96 fold; Bmax, maximum specific TFT fluorescence in the presence of mAChE (murine AChE (mAChE) [3]; mean ± SEM, n = 7): 562 ± 23 fluorescent units; Kd (human recombinant AChE; read-out: Kd of TFT, ref De Ferrari et al. [17]): 890 nM; Kd (human recombinant AChE; read-out: Kd of TFT, ref Sultatos and Kaushik [13]): 360 nM
COc1cc2c3cc1Oc1cc(ccc1O)C[C@@H]1c4c(cc(OC)c(O)c4Oc4ccc(cc4)C[C@@H]3N(C)CC2)CC[N+]1(C)C [Tubocurarine, d-tubocurarine] | 69000 | 0.7 | 50000 | IC50 (murine AChE (mAChE) [1]; IC50, Ellman assay): 50000 to 70000 nM; IC50 (murine AChE (mAChE) [2]; IC50, TFT assay): 50000 to 70000 nM
benzylpiperidine |  | 0.95 |  | IC50 (murine AChE (mAChE) [1]; [6]): 167000 nM; maximum percentage reduction of total TFT fluorescence (murine AChE (mAChE) [2]): around 30%; IC50 (murine AChE (mAChE) [2]; [7]): 159000 nM; IC50 (murine AChE (mAChE) [2]; read-out: potency (IC50) for reducing thioflavin-T fluorescence): 159000 nM

Source: paper PMC3758491 (Pesticide biochemistry and physiology, 2013)
